What is called IC50 is the concentration that gives 50% inhibition. Higher therefore signals weaker potency in that assay.

SMILES strings stand for the structures. Where a name gives a salt, the structure may show the parent alone.

We go through 40 compounds from US20100009970A1, “COMPOSITIONS AND METHODS FOR TREATMENT OF VIRAL DISEASES” (Combinatorx (Singapore) Pte. Ltd., priority 2008, published 2010).

The test system of the first assay is Huh7 cells expressing a subgenomic RNA replicon of Con1 (genotype 1b) sequence origin. Kind of assay: microbe, parasite or virus in culture. To be noted: Hepatitis C virus, Huh-7.
`Nc1ccc(OCCCCCOc2ccc(N)cc2)cc1` [1,5-Bis(4-aminophenoxy)pentane, reference compound] yielded a half-inhibitory concentration (IC50) of 1.7 µM.

As for `Oc1cccc2c(O)nccc12` [1,5-Isoquinolinediol, reference compound], the IC50 was found to be 25.9 µM.

Regarding `Nc1ccccc1OCCCCCOc1ccccc1N` [2,2′-(Pentamethylenedioxy)dianiline, reference compound], 0.27 µM corresponded to half-maximal inhibition (IC50).

Compound `O=C1CC(O)(c2ccccc2)Oc2ccccc21` (stereo not shown) [2-Hydroxyflavanone, 2-hydroxyflavanone, reference compound] returned an IC50 of 2.48 µM. This IC50 is about 9.2-fold higher than that of the compound before.

`C[C@@]1(O)[C@H](O)[C@@H](CO)O[C@H]1n1ccc(N)nc1=O` [2′-C-Methylcytidine, 2′-C-methylcytidine, reference compound] showed an IC50 of 1.63 µM. This IC50 lies about 1.5-fold lower than the previous one.

`Nc1cccc(OCCCCCOc2cccc(N)c2)c1` [3,3′-(Pentamethylenedioxy)dianiline, reference compound]: the IC50 turned out to be 1.63 µM. This counts as single-digit micromolar.

Consider `CC(C)(C)C(=O)OCOP(=O)(COCCn1cnc2c(N)ncnc21)OCOC(=O)C(C)(C)C` [Adefovir (e.g., dipivoxil), adefovir dipivoxil, reference compound], for which inhibition was half-maximal at 0.319 µM (IC50).

In turn, `Nc1nc[nH]n1` [Amitrole] returned an IC50 of 14.6 µM.

For `CCC(C)(C)c1ccc(CC(C)CN2C[C@@H](C)O[C@@H](C)C2)cc1` (stereo partly shown) [Amorolfine (e.g., hydrochloride), amorolfine, reference compound], half-maximal inhibition (IC50) required 1.62 µM.

As for `C[C@@]1(CO)[C@H](O)CC[C@@]2(C)[C@H]1CC[C@H]1C[C@@H]3C[C@@]12CC[C@]3(O)CO` [Aphidicolin, aphidicolin, reference compound], the IC50 was determined as 1.71 µM.

The compound `CCOC(=O)c1c(CSc2ccccc2)n(C)c2cc(Br)c(O)c(CN(C)C)c12` [Arbidol, arbidol, reference compound] came in with an IC50 of 12.2 µM. Against the preceding compound, the IC50 is about 7.1-fold higher.

`C[C@@H]1CC[C@H]2[C@@H](C)C(=O)O[C@@H]3O[C@]4(C)CC[C@@H]1[C@]32OO4` [Artemisinin, artemisinin, reference compound] yielded an IC50 of 4.45 µM.

`C[C@H]1[C@H](OC(=O)CCC(=O)O)O[C@@H]2O[C@@]3(C)CC[C@H]4[C@H](C)CC[C@@H]1[C@@]24OO3` [Artesunate, artesunate, reference compound] registered an IC50 of 3.73 µM.

Regarding `CN1CCCC(n2nc(Cc3ccc(Cl)cc3)c3ccccc3c2=O)CC1` (stereo not shown) [Azelastine, azelastine, reference compound], the IC50 was found to be 6.22 µM.

With `CCCCOc1cc(C(=O)OCCN(CC)CC)ccc1N` [Benoxinate (e.g., hydrochloride), benoxinate, reference compound], the IC50 was 3.02 µM.

Take `N=C(NCc1ccccc1)NC(=O)c1nc(Cl)c(N)nc1N` [Benzamil (e.g., HCl), benzamil, reference compound]: it took 4.73 µM to reach half-maximal inhibition (IC50).

In the case of `CCOC(=O)c1ccc(N)cc1` [Benzocaine, reference compound], 13.9 µM corresponded to half-maximal inhibition (IC50).

The compound `CN(C)CCCOc1nn(Cc2ccccc2)c2ccccc12` [Benzydamine (e.g., hydrochloride), benzydamine, reference compound] yielded an IC50 of 9 µM.

`CC1=C(/C=C/C(C)=C/C=C/C(C)=C/C=C/C=C(C)/C=C/C=C(C)/C=C/C2=C(C)CCCC2(C)C)C(C)(C)CCC1` [Beta-Carotene] showed an IC50 of 18.5 µM.

On to `c1ccc(-c2ccc(C(c3ccccc3)n3ccnc3)cc2)cc1` (stereo not shown) [Bifonazole, reference compound], for which the midpoint of inhibition, the IC50, lay at 6.15 µM.

Regarding `CC(C)(C)NC(=O)NC(C(=O)N1C[C@H]2[C@@H]([C@H]1C(=O)NC(CC1CCC1)C(=O)C(N)=O)C2(C)C)C(C)(C)C` (stereo partly shown) [Boceprevir (SCH 503034), Boceprevir, reference compound], the IC50 came to 0.259 µM.

`CN(Cc1cc(Br)cc(Br)c1N)C1CCCCC1` [Bromhexine, reference compound] came in with an IC50 of 14.2 µM. Compared with the last compound, the IC50 is about 55-fold higher.

Take `CC(C)C[C@H]1C(=O)N2CCC[C@H]2[C@]2(O)O[C@](NC(=O)[C@@H]3C=C4c5cccc6[nH]c(Br)c(c56)C[C@H]4N(C)C3)(C(C)C)C(=O)N12` [Bromocriptine (e.g., mesylate), bromocriptine, reference compound]: the IC50 turned out to be 3.38 µM. Against the preceding compound, the IC50 is about 4.2-fold lower.

Compound `CCCC1O[C@@H]2C[C@H]3[C@@H]4CCC5=CC(=O)C=C[C@]5(C)[C@H]4[C@@H](O)C[C@]3(C)[C@]2(C(=O)CO)O1` (stereo partly shown) [Budesonide, budesonide, reference compound] gave an IC50 of 15.7 µM.

`CCCCOc1ccc(CC(=O)NO)cc1` [Bufexamac, bufexamac, reference compound] displayed an IC50 of 8.29 µM.

In turn, `CC[C@@]1(O)C(=O)OCc2c1cc1n(c2=O)Cc2cc3ccccc3nc2-1` [Camptothecin, camptothecin, reference compound] had an IC50 of 0.026 µM. This IC50 is about 320-fold lower than that of the compound before.

In the case of `COc1cc(CNC(=O)CCCC/C=C/C(C)C)ccc1O` [Capsaicin, reference compound], half-maximal inhibition (IC50) was put at 11.7 µM.

For `CNC(=O)Oc1cccc2ccccc12` [Carbaryl], the IC50 came out at 9.65 µM.

`CC1=C(O)C(=O)C=C2C1=CC=C1[C@@]2(C)CC[C@@]2(C)[C@@H]3C[C@](C)(C(=O)O)CC[C@]3(C)CC[C@]12C` [Celastrol, reference compound] displayed an IC50 of 0.449 µM. Against the preceding compound, the IC50 is about 21-fold lower.

Compound `COc1ccc2cc1Oc1ccc(cc1)C[C@H]1c3c(cc4c(c3Oc3cc5c(cc3OC)CCN(C)[C@@H]5C2)OCO4)CCN1C` [Cepharanthine, reference compound] displayed an IC50 of 19.5 µM.

In turn, `C/C=C/C/C=C/CCC(=O)[C@H]1O[C@H]1C(N)=O` [Cerulenin, reference compound] showed an IC50 of 16.2 µM.

The compound `CCN(CC)CCCC(C)Nc1ccnc2cc(Cl)ccc12` (stereo not shown) [Chloroquine (e.g., phosphate), Chloroquine, reference compound] registered an IC50 of 4.78 µM.

Regarding `CN(C)CCOC(C)(c1ccccc1)c1ccc(Cl)cc1` (stereo not shown) [Chlorphenoxamine (e.g., hydrochloride), chlorphenoxamine, reference compound], the IC50 was 16.2 µM. Against the preceding compound, the IC50 is about 3.4-fold higher.

Take `CN(C)CCCC1(c2ccc(F)cc2)OCc2cc(C#N)ccc21` (stereo not shown) [Citalopram (e.g., hydrobromide), Citalopram, reference compound]: the IC50 worked out at 27.3 µM.

Compound `Nc1nc(Cl)nc2c1ncn2[C@H]1C[C@H](O)[C@@H](CO)O1` [Cladribine, 2-chloro-2′-deoxyadenosine, reference compound] gave an IC50 of 0.112 µM.

In turn, `COc1cc(/C=C/C(=O)CC(=O)/C=C/c2ccc(O)c(OC)c2)ccc1O` [Curcumin, curcumin] gave an IC50 of 8.68 µM. Compared with the last compound, the IC50 is about 78-fold higher.

Turning to `N=c1ccn2c(n1)O[C@H]1[C@H](O)[C@@H](CO)O[C@H]12` [Cyclocytidine (e.g., hydrochloride), Cyclocytidine, reference compound], 0.183 µM corresponded to half-maximal inhibition (IC50).

The same assay, now with this note: Hepatitis C virus, Huh-7, read-out: Max Effect@CC30 (inhibition).
Consider `CSc1ccc(Oc2ccccc2CN(C)C)cc1` [Compound 35, N,N-dimethyl(2-(4-(methylthio)phenoxy)phenyl)methanamine], for which the Emax amounted to 48%.

Regarding `COc1cccc(Oc2ccc(Br)cc2CN(C)C)c1` [Compound 38, (5-bromo-2-(3-methoxyphenoxy)phenyl)-N,N-dimethylmethanamine], the Emax was 42%.

Consider `CNCc1cc(S(N)(=O)=O)ccc1Oc1ccc(Br)cc1` [Compound 44, 4-(4-bromophenoxy)-3-((methylamino)methyl)benzenesulfonamide], for which the Emax was 32.1%.
